Assay results published in PubChem BioAssay AID651672 (The Scripps Research Institute Molecular Screening Center, 2012).
Active and inactive are the calls of the source. How the calls were made is not given here.

Molecular target: Perilipin-1 (Homo sapiens) (UniProt O60240)
Experiment: ABHD5 and perilipin-1 interaction blockers – biochemical, luminescence, counter-screen for ABHD5-PLIN5 interaction inhibitor project, dose response (AID 651672);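 further: split Gaussia luciferase complementation between ABHD5 and PLIN1 fusion fragments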
Details: ABHD5-PLIN1 interaction

Sequence of Perilipin-1 (Homo sapiens) (O60240 whole entry, looked up, the tested form may be a part): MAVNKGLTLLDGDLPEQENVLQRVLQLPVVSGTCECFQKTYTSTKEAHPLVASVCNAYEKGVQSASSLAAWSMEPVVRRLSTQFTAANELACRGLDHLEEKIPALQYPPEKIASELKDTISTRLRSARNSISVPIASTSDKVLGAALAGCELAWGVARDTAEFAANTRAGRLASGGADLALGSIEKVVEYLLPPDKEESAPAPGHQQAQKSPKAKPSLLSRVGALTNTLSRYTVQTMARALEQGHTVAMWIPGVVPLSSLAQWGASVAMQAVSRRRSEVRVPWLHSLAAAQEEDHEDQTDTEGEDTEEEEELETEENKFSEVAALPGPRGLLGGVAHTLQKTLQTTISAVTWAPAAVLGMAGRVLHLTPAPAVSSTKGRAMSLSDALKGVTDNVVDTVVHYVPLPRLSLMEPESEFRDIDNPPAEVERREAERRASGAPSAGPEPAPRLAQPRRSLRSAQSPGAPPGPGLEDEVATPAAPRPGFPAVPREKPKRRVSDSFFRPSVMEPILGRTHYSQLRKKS

| Structure (SMILES) | IC50 |
| --- | --- |
| CCCCCCC=C1CCC(CN2CCCC2)C1=O (stereo unspecified) | 1370 nM |
| NC(=O)CCN1CCN(CCOC2Cc3cc(Cl)ccc3Sc3ccccc32)CC1 (stereo unspecified) | inactive |
| CCCCCNC(=O)C(c1ccc(C#N)cc1)n1c(=O)c(-c2ccco2)nc2ccccc21 (stereo unspecified) | 2980 nM |
| COc1ccc(NC(=O)C(c2ccc(OC)cc2)n2c(=O)c(-c3ccco3)nc3ccccc32)cc1 (stereo unspecified) | 7700 nM |
| Cc1ccc(S(=O)(=O)N2C[C@@]3(O)Cn4c(=O)ccc(=O)n4C[C@@]3(OC(=O)NCC3CCCCC3)C2)cc1 | 6220 nM |
| COc1ccc(C(C(=O)Nc2ccc3c(c2)OCCO3)n2c(=O)c(-c3ccco3)nc3ccccc32)cc1 (stereo unspecified) | 5430 nM |
| FC(F)(F)c1cccc(NC(=S)N(CCCN2CCCC2)Cc2cccn2Cc2ccc(Cl)cc2)c1 | inactive |
| Cc1ccc(S(=O)(=O)N2C[C@H]3n4c(=O)ccc(=O)n4C[C@H](OC(=O)Nc4cccs4)[C@@]3(O)C2)cc1 | 6500 nM |
| CC(C)c1nnc(NC(=O)c2nc(S(=O)(=O)Cc3ccc(F)cc3)ncc2Cl)s1 | 2840 nM |
| CC(C)(C)NC(=O)C(c1ccc(-c2ccccc2)cc1)n1c(=O)c(-c2ccco2)nc2ccccc21 (stereo unspecified) | 1670 nM |
| CN(C)CCOc1ccc(-c2c(-c3ccccc3)sc3ccccc23)cc1 | inactive |
| CCN(CC)CCOc1ccc(/C(=C(\Cl)c2ccccc2)c2ccccc2)cc1 | 2230 nM |
| CCOC(=O)c1c(NC(C)=O)sc2c1CCC(C=O)=C2Sc1ccccc1 | 3110 nM |
| CC(O)CC(=O)OC[C@]12CC[C@H]3[C@@](C)(CC[C@H]4C(C)(C)CCC[C@]34C)[C@@H]1CC(C1=CC(=O)OC1O)O2 (stereo partly specified) | 1250 nM |
| CCC(c1nc2ccccc2[nH]1)n1c(=O)c(-c2ccco2)nc2ccccc21 (stereo unspecified) | 3970 nM |
| O=C(NCc1ccccc1)C(c1ccc(C(F)(F)F)cc1)n1c(=O)c(-c2ccco2)nc2ccccc21 (stereo unspecified) | 1590 nM |
| Cc1oc2c(c1C(=O)c1ccc(Cl)cc1)C(=O)C(=O)c1ccccc1-2 | 3990 nM |
| Cc1ccc2sc(N(CCCN(C)C)C(=O)CN3C(=O)c4ccccc4C3=O)nc2c1C | inactive |
| Cc1ccc(C(=O)c2coc3c2C(=O)C(=O)c2ccccc2-3)cc1 | 3880 nM |
| CCC(C(=O)OCCN(CC)CC)c1ccccc1 (stereo unspecified) | 2530 nM |
| O=C(NC1CCCCC1)C(c1ccc(-c2ccccc2)cc1)n1c(=O)c(-c2ccco2)nc2ccccc21 (stereo unspecified) | 1880 nM |
| O=C(C[n+]1cccc(CNC(=O)c2ccc(OC(F)F)cc2)c1)Nc1cccc(C(F)(F)F)c1 | inactive |
| CC(c1nc2ccccc2[nH]1)n1c(=O)c(-c2ccco2)nc2ccccc21 (stereo unspecified) | 3370 nM |
| Cc1ccc(SC2=C(Sc3ccc(C)cc3)C(=O)c3ccccc3C2=O)cc1 | 6720 nM |

| Structure (SMILES) | IC50 |
| --- | --- |
| CC1=CC(C)(C)Nc2ccc(OC(=O)c3cccnc3)cc21 | 1930 nM |
| CN(C)CCCNC(=O)c1ccc(-c2nc(-c3ccc(Cl)cc3)cs2)cc1 | inactive |
| CCCCCNC(=O)C(c1ccc(OC)cc1)n1c(=O)c(-c2ccco2)nc2ccccc21 (stereo unspecified) | 1410 nM |
| CCN1CCN(Cc2ccc(NC(=O)c3ccc(C)c(/C=C/c4cnc(Nc5cc(N6CCNCC6)nc(C)n5)cn4)c3)cc2C(F)(F)F)CC1 | 3420 nM |
| O=C(NC1CCCCC1)C(c1ccc(C(F)(F)F)cc1)n1c(=O)c(-c2ccco2)nc2ccccc21 (stereo unspecified) | 1670 nM |
| COCCNC(=O)/C(C#N)=C/c1cccc(/C=C(\C#N)C(=O)NCCOC)c1 | 804 nM |
| CC(=O)Oc1c(Cl)c(N2CCOCC2)c(OC(C)=O)c2ccccc12 | 4440 nM |
| Cc1ccc(NC(=O)CSc2nnc(-c3ccco3)c(-c3ccco3)n2)cc1 | 2660 nM |
| C#CCOCCOCCOCCNc1nc(N2CCN(C(=O)CCCCCCCCCCNC(=O)[C@@H](CCSC)n3cc(CCO)nn3)CC2)nc(N2CCN(C(=O)CCCCCCCCCCNC(=O)[C@@H]([C@H](C)O)n3cc(C)nn3)CC2)n1 | inactive |
| CC(=O)Nc1ccc(S(=O)(=O)N2c3ccc(F)cc3CCC2C)cc1 (stereo unspecified) | inactive |
| Cc1ccc(C)c(/C=C/C(=O)c2ccccc(=O)c2O)c1 | 5580 nM |
| CCCCNC(=O)Nc1ccc2c(c1)N(C)C(=O)c1ccccc1S2 | 3190 nM |
| CCCC(=O)NC(c1cccc([N+](=O)[O-])c1)c1ccc2cccnc2c1O (stereo unspecified) | > 39800 nM (inactive) |
| COCCN(CCOC)c1nc(N)c2c(N)nc3c(c2c1C#N)CC(=O)N3Cc1ccc(Cl)cc1 | 6570 nM |
| O=C(Cn1c(=O)n(Cc2ccco2)c(=O)c2c3c(sc21)CCCC3)Nc1ccccc1 | 8680 nM |
| O=C(/C=C/Sc1ccccc1)c1ccc(Cl)cc1 | 3810 nM |
| Cc1cccc(C)c1NC(=O)C(c1ccccc1F)n1c(=O)c(-c2ccco2)nc2ccccc21 (stereo unspecified) | 2810 nM |
| O=C1CC(c2ccc(Cl)cc2)Oc2ccc(Cl)cc21 (stereo unspecified) | 2950 nM |
| O=c1nc(/C=C/c2ccc(Cl)cc2Cl)cc(C(F)(F)F)[nH]1 | 2940 nM |
| O=C(Nc1ccc2c(c1)OCCO2)C(c1ccnc2ccccc12)n1c(=O)c(-c2ccco2)nc2ccccc21 (stereo unspecified) | inactive |
| N#Cc1ccc(C(C(=O)NCc2ccccc2)n2c(=O)c(-c3ccco3)nc3ccccc32)cc1 (stereo unspecified) | 1700 nM |
| Cc1cccc(C)c1NC(=O)C(c1ccccc1)n1c(=O)c(-c2ccco2)nc2ccccc21 (stereo unspecified) | 3370 nM |
| O=C1NC(=O)N(c2ccccc2F)C(=O)/C1=C/c1ccc(Oc2ccc([N+](=O)[O-])cn2)cc1 | 2730 nM |
| CC(C)(C)NC(=O)C(c1ccccc1F)n1c(=O)c(-c2ccco2)nc2ccccc21 (stereo unspecified) | 2260 nM |

| Structure (SMILES) | IC50 |
| --- | --- |
| C#CCN(C[C@@H]1[C@@H](OC(=O)NCC2CCCCC2)[C@@H](OC(=O)NCC2CCCCC2)Cn2c(=O)ccc(=O)n21)S(=O)(=O)c1ccc(C)cc1 | 4760 nM |
| Cc1ccc(CS(=O)(=O)c2ncc(Cl)c(C(=O)Nc3nnc(C(C)C)s3)n2)cc1 | 1710 nM |
| O=[N+]([O-])/C=C/c1cn(Cc2ccc(F)cc2)c2ccccc12 | 7460 nM |
| CN(C)CCOC1(Cc2ccc(F)cc2)CCC(C(C)(C)C)CC1 (stereo unspecified) | 9950 nM |
| Cc1cc(C)c(NC(=O)CN2CCN3CCCC3C2)c(C)c1 (stereo unspecified) | inactive |
| COc1ccc(NC(=O)C(c2cccc3ccccc23)n2c(=O)c(-c3ccco3)nc3ccccc32)cc1 (stereo unspecified) | inactive |
| CC(=O)Oc1c(Br)cc(N(C(C)=O)S(=O)(=O)c2ccccc2)c2ccccc12 | 8800 nM |
| CC(C)(C)NC(=O)C(c1cc2ccccc2o1)n1c(=O)c(-c2ccco2)nc2ccccc21 (stereo unspecified) | 1930 nM |
| O=S(=O)(NC1=NCCCCC1)c1ccc2sc(NS(=O)(=O)c3ccc4ccccc4c3)nc2c1 | inactive |
| CC(C)(C)NC(=O)C(c1cccc2ccccc12)n1c(=O)c(-c2ccco2)nc2ccccc21 (stereo unspecified) | 2040 nM |
| O=C(/C=C/c1ccc(NC(=O)c2ccccc2-c2ccccc2C(=O)O)cc1)c1ccccc1 | 8030 nM |
| CCOC(=O)c1c(C)oc2c1c(CN1CCN(CCO)CC1)c(O)c1ccccc12 | 1810 nM |
| CCN(CC)CCC(C)OC(c1ccccc1)c1ccccc1 (stereo unspecified) | 2600 nM |
| C#CCN(C[C@@H]1[C@@H](OC(=O)NCc2ccccc2F)[C@@H](OC(=O)NCc2ccccc2F)Cn2c(=O)ccc(=O)n21)S(=O)(=O)c1ccc(C)cc1 | 4510 nM |
| CC1=CC2C(C(O)CC3(C)C2CC(C)C32OCOC23COCO3)C2(C)C/C(=C\O)C(=O)C=C12 (stereo unspecified) | 3510 nM |
| O=C(/C=C/c1ccccc1)CC(O)(c1ccccc1)C(F)(F)C(F)F (stereo unspecified) | 821 nM |
| O=C(O)CC(O)(CC(=O)O)C(=O)O | 3710 nM |
| CC1(C)C2CCC(CN=C(N)CSS(=O)(=O)O)C1C2 (stereo unspecified) | 4290 nM |
| C#CCN(C[C@@H]1[C@@H](OC(=O)Nc2cccs2)[C@@H](OC(=O)Nc2cccs2)Cn2c(=O)ccc(=O)n21)S(=O)(=O)c1ccc(C)cc1 | 2330 nM |
| CSc1nnc(NC(=O)c2nc(S(=O)(=O)Cc3ccccc3)ncc2Cl)s1 | 3270 nM |
| COc1cc(C)c2sc3ccccc3c(=O)c2c1NCCN(C)C | 6300 nM |
| CCCCCNC(=O)C(c1cc2ccccc2o1)n1c(=O)c(-c2ccco2)nc2ccccc21 (stereo unspecified) | 1480 nM |
| CCCCCNC(=O)C(c1cccc2ccccc12)n1c(=O)c(-c2ccco2)nc2ccccc21 (stereo unspecified) | 2010 nM |
| CCOc1cc(N)c(Cl)cc1C(=O)NCC1CN(Cc2ccc(F)cc2)CCO1 (stereo unspecified) | 1970 nM |

| Structure (SMILES) | IC50 |
| --- | --- |
| O=C(Nc1ccc2c(c1)OCCO2)C(c1ccccc1F)n1c(=O)c(-c2ccco2)nc2ccccc21 (stereo unspecified) | 9210 nM |
| CC(=O)Cc1cc(O)c2ccccc2c1OC(=O)c1ccc(Br)cc1 | 1600 nM |
| O=C1NC(=O)N(Cc2ccc(F)cc2)C(=O)/C1=C\C=C\c1ccco1 | 1690 nM |
| O=C(NC1CCCCC1)C(c1ccccc1F)n1c(=O)c(-c2ccco2)nc2ccccc21 (stereo unspecified) | 1900 nM |
| O=C(NC1CCCCC1)C(c1cccc2ccccc12)n1c(=O)c(-c2ccco2)nc2ccccc21 (stereo unspecified) | 1220 nM |
| N#Cc1ccc(C(C(=O)NC2CCCCC2)n2c(=O)c(-c3ccco3)nc3ccccc32)cc1 (stereo unspecified) | 1920 nM |
| CCOC(=O)C1C(OC(=O)c2ccccc2)CC2CCC1N2C (stereo unspecified) | inactive |
| COc1ccc(C)c2sc(N(CCN(C)C)C(=O)/C=C/c3cccs3)nc12 | inactive |
| Oc1ccc2sc(-c3ccccc3O)c(-c3ccc(OCCN4CCCCC4)cc3)c2c1 | 7150 nM |
| CCN1/C(=C/C=C/c2oc3ccc(-c4ccccc4)cc3[n+]2CC)Oc2ccc(-c3ccccc3)cc21 | 1240 nM |
| COc1ccc(OCc2cn(CC(=O)c3ccc(O)cc3)nn2)cc1 | 3770 nM |
| CC1=CC(C)(C)Nc2ccc(OC(=O)C(C)N3C(=O)c4ccccc4C3=O)cc21 (stereo unspecified) | 1820 nM |
| CCN1C/C(=C/c2ccc(OC)c(O)c2)C(=O)/C(=C/c2ccc(OC)c(O)c2)C1 | 7540 nM |
| O=C(NCc1ccccc1)C(c1cccc2ccccc12)n1c(=O)c(-c2ccco2)nc2ccccc21 (stereo unspecified) | 2060 nM |
| COc1ccc(C(C(=O)NC(C)(C)C)n2c(=O)c(-c3ccco3)nc3ccccc32)cc1 (stereo unspecified) | 1820 nM |
| CSC(=Nc1ccccc1)N=C(SCc1ccccc1)N(C)C | 1180 nM |
| COc1ccc(NC(=O)C(c2ccc(C#N)cc2)n2c(=O)c(-c3ccco3)nc3ccccc32)cc1 (stereo unspecified) | inactive |
| O=C(NCc1ccccc1)C(c1ccccc1F)n1c(=O)c(-c2ccco2)nc2ccccc21 (stereo unspecified) | 2310 nM |
| COC(=O)c1cc(=O)n(-c2ccc(F)cc2)c(=Nc2ccc(F)cc2)s1 | 2500 nM |
| CC1CCN(S(=O)(=O)c2ccc(NC(=O)Cc3ccccc3)cc2)CC1 | 5330 nM |
| CCN(CC)CCN(CC(=O)Nc1c(C)cc(C)cc1C)C(=O)c1ccccc1 | inactive |
| CC(C)(C)NC(=O)C(C1CC1)n1c(=O)c(-c2ccco2)nc2ccccc21 (stereo unspecified) | 4200 nM |
| Cc1ccc(/C=C/C(=O)c2cc(Br)ccc2OC(=O)c2ccco2)cc1 | 684 nM |
| CN1CCC[C@@H]1CCO[C@](C)(c1ccccc1)c1ccc(Cl)cc1 | inactive |
